Positions count from the first letter of the chain named. Calls of active or inactive are those of the source. No cut-off for these calls is given here.
Tests used:
[1] = biological target: G protein-coupled receptor (Human betaherpesvirus 5, UniProt Q9IP65); test: Allosteric modulatory activity at FLAG-tagged human cytomegalovirus US28 receptor delta300 mutant expressed in HEK293T cells by PathDetectElk1 assay; assay type: cell-based; conditions: hek-293t
[2] = biological target: T1, G protein-coupled receptor (Human betaherpesvirus 5) (UniProt Q9IP65); test: Allosteric modulatory activity at FLAG-tagged human cytomegalovirus US28 receptor delta300 mutant expressed in HEK293T cells by PathDetectElk1 assay relative to basal level; assay type: cell-based; conditions: HEK-293T
T1 sequence (whole entry): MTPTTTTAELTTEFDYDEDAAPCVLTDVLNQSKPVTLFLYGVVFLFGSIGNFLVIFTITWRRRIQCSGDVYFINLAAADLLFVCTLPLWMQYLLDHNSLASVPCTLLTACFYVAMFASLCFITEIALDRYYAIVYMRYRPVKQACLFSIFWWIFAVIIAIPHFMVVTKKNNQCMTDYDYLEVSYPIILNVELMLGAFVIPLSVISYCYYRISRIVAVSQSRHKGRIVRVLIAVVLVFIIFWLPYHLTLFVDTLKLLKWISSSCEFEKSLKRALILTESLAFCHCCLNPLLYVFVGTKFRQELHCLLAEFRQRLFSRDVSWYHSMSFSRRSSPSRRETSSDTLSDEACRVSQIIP

[3] = biological target: T2, G-protein coupled receptor homolog US28 (Human cytomegalovirus (strain AD169) (HHV-5) (Human herpesvirus 5)) (UniProt P69332); test: Allosteric modulatory activity at FLAG-tagged wild type human cytomegalovirus US28 receptor expressed in HEK293T cells by PathDetectElk1 assay relative to basal level; assay type: cell-based; set-up: concentration or dose not given beside the values; conditions: Human betaherpesvirus 5; HEK-293T
T2 sequence (whole entry): T1 sequence (whole entry) with A21T, L25F, N170D, K267R, A346V

[4] = biological target: T3, G-protein coupled receptor homolog US28 (Human cytomegalovirus (strain AD169) (HHV-5) (Human herpesvirus 5), UniProt P69332); test: Allosteric modulatory activity at FLAG-tagged wild type human cytomegalovirus US28 receptor expressed in HEK293T cells by PathDetectElk1 assay; assay type: cell-based, Human betaherpesvirus 5, HEK-293T
T3 sequence (P69332 whole entry): T1 sequence (whole entry) with A21T, L25F, N170D, K267R, A346V

[5] = biological target: T1, G protein-coupled receptor (Human betaherpesvirus 5); test: Increase in CX3CL1/Fractalkine binding to FLAG-tagged human cytomegalovirus US28 receptor delta300 mutant expressed in HEK293T cells; assay type: cell-based; conditions: HEK-293T
[6] = biological target: T1, G protein-coupled receptor (Human betaherpesvirus 5); test: Allosteric modulatory activity at FLAG-tagged human cytomegalovirus US28 receptor delta300 mutant expressed in HEK293T cells assessed as reduction in CCL5/Rantes-induced response by PathDetectElk1 assay; assay type: cell-based; conditions: HEK-293T
[7] = biological target: T1, G protein-coupled receptor (Human betaherpesvirus 5); test: Allosteric modulatory activity at FLAG-tagged human cytomegalovirus US28 receptor delta300 mutant expressed in HEK293T cells assessed as reduction in CX3CL1/Fractalkine-induced response by PathDetectElk1 assay; assay type: cell-based; conditions: HEK-293T
[8] = biological target: T1, G protein-coupled receptor (Human betaherpesvirus 5); test: Effect on CX3CL1/Fractalkine binding to FLAG-tagged human cytomegalovirus US28 receptor delta300 mutant expressed in HEK293T cells; assay type: cell-based; conditions: HEK-293T
[9] = biological target: T1, G protein-coupled receptor (Human betaherpesvirus 5); test: Allosteric modulatory activity at FLAG-tagged human cytomegalovirus US28 receptor delta300 mutant expressed in HEK293T cells at 10 uM in presence of CX3CL1/Fractalkine by PathDetectElk1 assay; assay type: cell-based; conditions: HEK-293T

Row | Structure (SMILES) | EC50 [1] | pEC50 [1] | Efficacy [2] | Efficacy [3] | EC50 [4] | Activity [5] | Activity [6] | Activity [7] | Activity [8] | Activity [9]
1 | CC1(CCO)Cc2ccccc2C(=O)N1c1ccccc1 (stereo not given) | 3100 nM | 5.51 | -21% | -14% | 1000 nM |  |  |  |  | 
2 | CCCCCCCCCC(=O)N(CCN(C)C)CC1(C)Cc2ccccc2C(=O)N1 (stereo not given) | > 10000 nM | < 5 | > 180% | -20% | 1500 nM |  |  |  |  | 
3 | CC1(CO)Cc2ccccc2C(=O)N1c1ccccc1 (stereo not given) | 930 nM | 6.03 | 27% | 41% | 4400 nM | Active |  |  |  | 
4 | CC1(COC(=O)Cc2ccccc2)Cc2ccccc2CN1C(=O)Cc1ccccc1 (stereo not given) | 2500 nM | 5.59 | -29% | -37% | 3400 nM |  | Active | Dose-dependent effect | inactive | inactive
5 | N#CC(CCCN1CCC(O)(c2ccc(Cl)cc2)CC1)(c1ccccc1)c1ccccc1 [BERLEX COMPOUND] | > 10000 nM | < 5 | > 180% | -22% | 4500 nM |  |  |  |  | 
6 | CSc1ccc2c(c1)C(N1CCN(C)CC1)Cc1ccccc1S2 (stereo not given) [METITEPINE] | 330 nM | 6.48 | 110% | 10% | 350 nM |  |  |  |  | 

From ChEMBL document CHEMBL3351308, “Allosteric modulation of the G protein-coupled US28 receptor of human cytomegalovirus: are the small-weight inverse agonist of US28 'camouflaged' agonists?” (Bioorg Med Chem Lett, 2014)
